Results as given in patent US20250326744A1, “PIPERAZINE DERIVATIVE OR SALT THEREOF, AND PHARMACEUTICAL COMPOSITION” (priority 2022, published 2025).
Counter-ions that a name gives are not always drawn.

Experiments:
mexY (EC) strain = test: Efflux ability inhibition effect on drug efflux pump MexY (Test Examples 1 and 3): proliferation (OD595) of mexY (EC) strain with EM or LVFX at 1/4 MIC, EC75; format: cell-based, Escherichia coli; conditions: Table 51, Test Example 1, 16 to 20 hours culture, OD595; for EC75, mexY (EC) strain, EM: combined with EM at 1/4 MIC; for EC75, mexY (EC) strain, LVFX: combined with LVFX at 1/4 MIC
Procedure: The efflux ability inhibition effect of the test compound on the drug efflux pump was evaluated using the bacterial proliferative ability in the presence of EM or LVFX as an index.
EM is a macrolide antibacterial agent and is a drug that is discharged outside the bacteria by MexB and MexY LVFX is a quinolone antibacterial agent and is a drug that is discharged outside the bacteria by MexB and MexY In a case where the test compound has an efflux ability inhibitory ability against the drug efflux pump, the proliferation of bacteria is suppressed by the combined use of EM or LVFX and the test compound, as compared with the case where EM or LVFX is used alone.
A mutant strain (hereinafter, referred to as an “mexB (EC) strain”) obtained by transferring the genes of the main multidrug efflux system MexAB-OprM of Pseudomonas aeruginosa described in Nature, 2013, Vol. 500, pp. 102 to 106 as a plasmid into Escherichia coli strains in which the acrB and tolC genes of the multidrug efflux system AcrAB-TolC were deleted as described in Journal of Infection and Chemotherapy 2008, Vol. 14, pp. 23 to 29, and a gene transfer strain (hereinafter, referred to as an “mexY (EC) strain”) of another main multidrug efflux system MexXY-OprM of Pseudomonas aeruginosa were used for the evaluation of test compounds.
In the mexB (EC) strain, an expression level of MexB of the drug efflux pump is accelerated, and in the mexY (EC) strain, an expression level of MexY of the drug efflux pump is accelerated.
For culturing each Escherichia coli strain, a 96-well plate (amount of culture medium per well: 100 μL) was used and Luria-Bertani broth (LB) culture medium was used. The inoculation amount of the bacteria was set to 10^4 to 5 CFU/well.
The mexB (EC) strain and the mexY (EC) strain were cultured for 16 to 20 hours in a culture medium to which EM or LVFX and test compounds at various concentrations (0 to 800 μM) were added, and the proliferation of the bacterial strains was evaluated by optical turbidity at 595 nm (OD595). The concentration of the antibacterial agents (EM and LVFX) in the culture medium were each set to ¼ of the minimum inhibitory concentration (MIC) (hereinafter, referred to as ¼ MIC) of the single antibacterial agent.
The proliferation of bacteria in a case where the antibacterial agent was added at the concentration of ¼ MIC in a case where the test compound was not added was measured, and compared with the proliferation of bacteria in a case where the test compound was contained, and the lowest concentration of the test compound at which the proliferation was inhibited by 75% or more was defined as the drug efflux pump inhibitory ability of the test compound as 75% inhibitory effect concentration (EC75).
The drug efflux pump inhibitory ability of each test compound in a case of being used in combination with the antibacterial agent against the mexB (EC) strain and the mexY (EC) strain was evaluated as follows according to the value of EC75. • S: EC75≤[…] • A: 12.5 μM<EC75≤25 μM • B: 25 μM<EC75≤100 μM • C: […]
In the same manner as in Test Example 1, the efflux ability inhibition effect of the test compound on the drug efflux pump was evaluated using the bacterial proliferation ability in the presence of EM or LVFX as an index.

mexB (PA) strain = test: Combinational effect with antibacterial agent against Pseudomonas aeruginosa (Test Examples 2 and 4): mexB (PA) strain with LVFX, TC or AZT at 1/4 MIC, EC99; format: cell-based; conditions: for EC99, mexB (PA), AZT / EC99, mexB (PA), LVFX: Table 52, Test Example 2, 16 to 20 hours culture, OD595; for EC99, mexB (PA), AZT / EC99, combinational effect with AZT, mexB (PA): combined with AZT at 1/4 MIC; for EC99, mexB (PA), LVFX / EC99, combinational effect with LVFX, mexB (PA): combined with LVFX at 1/4 MIC; for EC99, combinational effect with AZT, mexB (PA) / EC99, combinational effect with LVFX, mexB (PA) / EC99, combinational effect with TC, mexB (PA): mexB (PA) strain, Test Example 4; for EC99, combinational effect with TC, mexB (PA): combined with TC at 1/4 MIC
Procedure, shortened: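 EC99 denotes the minimum test-compound concentration (range 0–800 μM) that suppresses ≥99% of growth, measured by OD595, when combined with ¼ MIC levofloxacin (LVFX), tetracycline or aztreonam. The efflux-pump mutant mexB (PA), expressing mainly MexAB-OprM, was inoculated at 10^4–5 CFU/well in CAMHB for 16–20 h.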

S-3769 strain = test: Combinational effect with antibacterial agent against Pseudomonas aeruginosa (Test Examples 2 and 4): S-3769 strain with AMK or GM at 1/4 MIC, EC99; format: cell-based; conditions: S-3769 strain, Test Example 4; for EC99, combinational effect with AMK, S-3769 strain: combined with AMK at 1/4 MIC; for EC99, combinational effect with GM, S-3769 strain: combined with GM at 1/4 MIC
Procedure, shortened: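 EC99, the lowest test-compound concentration inhibiting growth by ≥99% (OD595), was measured with aminoglycoside AMK or GM held at ¼ MIC. Strain S-3769, a MexY-overexpressing clinical isolate, was cultured in CAMHB at 10^4 to 5 CFU/well for 16–20 h; compound range 0–800 μM.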

| SMILES | EC75, mexY (EC) strain, EM (mexY (EC) strain) | EC75, mexY (EC) strain, LVFX (mexY (EC) strain) | further results |
| --- | --- | --- | --- |
| CCOc1cccc(F)c1CN1CCN(C(=O)[C@H](N)C2CCN(CCn3c(=O)ccc4ncc(F)cc43)CC2)CC1 [Example 14, Hydrobromide of (R)-1-(2-(4-(1-amino-2-(4-(2-ethoxy-6-fluorobenzyl)piperazin-1-yl)-2-oxoethyl)piperidin-1-yl)ethyl)-7-fluoro-1,5-naphthyridin-2(1H)-one] | B (25 μM<EC75≤100 μM) | B (25 μM<EC75≤100 μM) | – |
| CCOc1cccc(F)c1CN1CCN(C(=O)[C@H](N)C2CCN(CCC3CCCC3)CC2)CC1 [Example 41, Hydrobromide of (R)-2-amino-2-(1-(2-cyclopentylethyl)piperidin-4-yl)-1-(4-(2-ethoxy-6-fluorobenzyl)piperazin-1-yl) ethan-1-one] | A (12.5 μM<EC75≤25 μM) | A (12.5 μM<EC75≤25 μM) | – |
| CCOc1cccc(F)c1CN1CCN(C(=O)[C@H](N)C2CCN(CCC3CCCCC3)CC2)CC1 [Example 47, Hydrobromide of (R)-2-amino-2-(1-(2-cyclohexylethyl)piperidin-4-yl)-1-(4-(2-ethoxy-6-fluorobenzyl)piperazin-1-yl)ethan-1-one] | A (12.5 μM<EC75≤25 μM) | A (12.5 μM<EC75≤25 μM) | – |
| CCOc1cccc(F)c1CN1CCN(C(=O)[C@H](N)C2CCN(CC(F)c3ccccc3)CC2)CC1 (stereo partly drawn) [Example 59, Hydrobromide of (2R)-2-amino-1-(4-(2-ethoxy-6-fluorobenzyl)piperazin-1-yl)-2-(1-(2-fluoro-2-phenylethyl)piperidin-4-yl) ethan-1-one] | B (25 μM<EC75≤100 μM) | B (25 μM<EC75≤100 μM) | – |
| CCOc1cccc(F)c1CN1CCN(C(=O)[C@H](N)C2CCN(CCc3cc(Cl)ccc3-c3ccccc3C#N)CC2)CC1 [Example 64, Hydrobromide of (R)-2′-(2-(4-(1-amino-2-(4-(2-ethoxy-6-fluorobenzyl)piperazin-1-yl)-2-oxoethyl)piperidin-1-yl)ethyl)-4′-chloro-[1,1′-biphenyl]-2-carbonitrile] | A (12.5 μM<EC75≤25 μM) | – | – |
| CCOc1cccc(F)c1CN1CCN(C(=O)[C@H](N)C2CCN(CCC34CC5CC(CC(C5)C3)C4)CC2)CC1 [Example 125] | A (12.5 μM<EC75≤25 μM) | – | – |
| CCOc1cccc(F)c1CN1CCN(C(=O)[C@H](N)C2CCN(CCC3(C)CCCCC3)CC2)CC1 [Example 126, Hydrochloride of (R)-2-amino-1-(4-(2-ethoxy-6-fluorobenzyl)piperazin-1-yl)-2-(1-(2-(1-methylcyclohexyl)ethyl)piperidin-4-yl)ethan-1-one] | A (12.5 μM<EC75≤25 μM) | A (12.5 μM<EC75≤25 μM) | – |
| COc1ccccc1CN1CCN(C(=O)[C@H](NCc2ccccc2)C2CCN(CCc3cccc(Cl)c3)CC2)CC1 [Example 142, hydrochloride of (R)-2-(benzylamino)-2-(1-(3-chlorophenethyl)piperidin-4-yl)-1-(4-(2-methoxybenzyl)piperazin-1-yl)ethan-1-one] | B (25 μM<EC75≤100 μM) | B (25 μM<EC75≤100 μM) | – |
| O=C(CN1CCN(CCc2ccccc2)CC1)N1CCN(CC2CCCCC2)CC1 [Example 210, Hydrochloride of 1-(4-(cyclohexylmethyl)piperazin-1-yl)-2-(4-phenethylpiperazin-1-yl)ethan-1-one] | B (25 μM<EC75≤100 μM) | – | – |
| O=C(CN1CCN(CCc2ccccc2)CC1)N1CCN(Cc2c(O)cccc2Cl)CC1 [Example 229, Hydrochloride of 1-(4-(2-chloro-6-hydroxybenzyl)piperazin-1-yl)-2-(4-phenethylpiperazin-1-yl)ethan-1-one] | B (25 μM<EC75≤100 μM) | B (25 μM<EC75≤100 μM) | EC99, mexB (PA), AZT (mexB (PA) strain): B (25 μM<EC99≤100 μM); EC99, mexB (PA), LVFX (mexB (PA) strain): B (25 μM<EC99≤100 μM) |
| O=C(CN1CCN(CCc2ccccc2)CC1)N1CCN(Cc2cccc3ccccc23)CC1 [Example 238] | B (25 μM<EC75≤100 μM) | B (25 μM<EC75≤100 μM) | EC99, mexB (PA), AZT (mexB (PA) strain): B (25 μM<EC99≤100 μM); EC99, mexB (PA), LVFX (mexB (PA) strain): B (25 μM<EC99≤100 μM) |
| COc1ccccc1CN1CCN(C(=O)CN2CCN(CCc3ccoc3)CC2)CC1 [Example 291, 2-(4-(2-(Furan-3-yl)ethyl)piperazin-1-yl)-1-(4-(2-methoxybenzyl)piperazin-1-yl)ethan-1-one and hydrochloride thereof] | B (25 μM<EC75≤100 μM) | – | – |
| COc1ccccc1CN1CCN(C(=O)C(F)(F)C2CCN(CCc3ccccc3)CC2)CC1 [Example 299, hydrochloride of 2,2-difluoro-1-(4-(2-methoxybenzyl)piperazin-1-yl)-2-(1-phenethylpiperidin-4-yl)ethan-1-one] | B (25 μM<EC75≤100 μM) | B (25 μM<EC75≤100 μM) | – |
| COc1ccccc1CN1CCN(C(=O)CN2CCC(C(=O)Nc3ccccc3)CC2)CC1 [Example 408, Hydrochloride of 1-(2-(4-(2-methoxybenzyl)piperazin-1-yl)-2-oxoethyl)-N-phenylpiperidine-4-carboxamide] | B (25 μM<EC75≤100 μM) | B (25 μM<EC75≤100 μM) | – |
| COc1ccccc1CN1CCN(C(=O)CN2CCC(CCc3ccccc3)(NC(N)=O)CC2)CC1 [Example 416, hydrochloride of 1-(1-(2-(4-(2-methoxybenzyl)piperazin-1-yl)-2-oxoethyl)-4-phenethylpiperidin-4-yl)urea] | B (25 μM<EC75≤100 μM) | B (25 μM<EC75≤100 μM) | – |
| CCSc1cc(F)ccc1CN1CCN(C(=O)[C@H](N)C2CCN(CCc3ccc(O)cc3-c3ccccc3)CC2)CC1 [Example 624, Hydrochloride of (R)-2-amino-1-(4-(2-(ethylthio)-4-fluorobenzyl)piperazin-1-yl)-2-(1-(2-(5-hydroxy-[1,1-biphenyl]-2-yl)ethyl)piperidin-4-yl)ethan-1-one] | – | – | EC99, combinational effect with AZT, mexB (PA) (mexB (PA) strain): C (100 μM<EC99); EC99, combinational effect with LVFX, mexB (PA) (mexB (PA) strain): B (25 μM<EC99≤100 μM); EC99, combinational effect with TC, mexB (PA) (mexB (PA) strain): B (25 μM<EC99≤100 μM); EC99, combinational effect with AMK, S-3769 strain (S-3769 strain): B (25 μM<EC99≤100 μM); EC99, combinational effect with GM, S-3769 strain (S-3769 strain): B (25 μM<EC99≤100 μM) |
| CCOc1cccc(F)c1CN1CCN(C(=O)[C@H](N)C2CCN(CCc3ccc(O)cc3-c3ccccc3)CC2)CC1 [Example 625, Hydrochloride of (R)-2-amino-1-(4-(2-ethoxy-6-fluorobenzyl)piperazin-1-yl)-2-(1-(2-(5-hydroxy-[1,1-biphenyl]-2-yl)ethyl)piperidin-4-yl)ethan-1-one] | – | – | EC99, combinational effect with AZT, mexB (PA) (mexB (PA) strain): C (100 μM<EC99); EC99, combinational effect with LVFX, mexB (PA) (mexB (PA) strain): C (100 μM<EC99); EC99, combinational effect with TC, mexB (PA) (mexB (PA) strain): C (100 μM<EC99); EC99, combinational effect with AMK, S-3769 strain (S-3769 strain): A (12.5 μM<EC99≤25 μM); EC99, combinational effect with GM, S-3769 strain (S-3769 strain): A (12.5 μM<EC99≤25 μM) |
